# pIC50: −log10 of the molar value.
# How the values were obtained:
# TNKS2 = molecular target: T1, TNKS2 (Homo sapiens, UniProt Q9H2K2); test: TNKS2 Assay B (auto-parsylation, [3H]-NAD+ SPA); format: biochemical; details: 6 nM TNKS2, auto-parsylation, over night at room temperature
# T1 construct: purchased BPS Bioscience, San Diego, USA 80572 (TNKS2 Histone Ribosylation Assay Kit)
# T1 sequence (Q9H2K2 1-1166): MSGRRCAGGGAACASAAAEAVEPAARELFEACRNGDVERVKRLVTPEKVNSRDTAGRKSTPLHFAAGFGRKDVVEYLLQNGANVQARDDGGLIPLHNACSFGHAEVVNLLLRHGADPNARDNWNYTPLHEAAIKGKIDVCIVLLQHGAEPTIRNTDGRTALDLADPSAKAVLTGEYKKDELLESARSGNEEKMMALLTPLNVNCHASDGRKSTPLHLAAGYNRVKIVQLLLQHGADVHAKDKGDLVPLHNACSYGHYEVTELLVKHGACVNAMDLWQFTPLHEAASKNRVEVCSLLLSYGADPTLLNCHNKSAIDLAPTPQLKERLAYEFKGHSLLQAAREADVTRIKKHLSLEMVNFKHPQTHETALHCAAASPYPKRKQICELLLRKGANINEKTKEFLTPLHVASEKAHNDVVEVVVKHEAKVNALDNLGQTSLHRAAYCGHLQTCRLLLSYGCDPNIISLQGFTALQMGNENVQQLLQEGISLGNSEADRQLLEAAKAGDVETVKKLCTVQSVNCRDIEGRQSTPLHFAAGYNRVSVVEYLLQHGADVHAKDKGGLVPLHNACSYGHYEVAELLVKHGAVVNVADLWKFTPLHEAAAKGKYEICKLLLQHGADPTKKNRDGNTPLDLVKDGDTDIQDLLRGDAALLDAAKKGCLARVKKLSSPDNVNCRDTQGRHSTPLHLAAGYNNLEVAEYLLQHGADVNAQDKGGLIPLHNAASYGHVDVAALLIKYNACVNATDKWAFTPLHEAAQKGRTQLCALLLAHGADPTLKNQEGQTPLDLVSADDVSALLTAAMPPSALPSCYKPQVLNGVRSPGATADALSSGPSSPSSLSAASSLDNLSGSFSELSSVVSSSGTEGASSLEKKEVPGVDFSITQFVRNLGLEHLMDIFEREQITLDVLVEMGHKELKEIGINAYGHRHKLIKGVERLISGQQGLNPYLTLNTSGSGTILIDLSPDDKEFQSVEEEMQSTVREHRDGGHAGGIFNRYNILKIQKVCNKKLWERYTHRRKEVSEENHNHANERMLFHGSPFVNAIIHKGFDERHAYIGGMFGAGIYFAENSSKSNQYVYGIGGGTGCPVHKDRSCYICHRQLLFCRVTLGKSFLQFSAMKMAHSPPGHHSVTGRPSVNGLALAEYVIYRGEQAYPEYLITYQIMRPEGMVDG
# [1] = test system: HEK293 cells cotransfected with the FOP control vector; test: HEK293 FOP assay (control reporter with non-functional TCF elements); format: cell-based; details: Homo sapiens, 16 hours
# Summary of the method: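 Compound series from 50 μM down to 15 nM, prediluted in DMSO then 50-fold into CAFTY buffer (pH 7.4, 2 mM Ca2+, 0.01% BSA), tested alongside TOP cells on a Geneticin-selected HEK293 FOP line whose TCF elements are replaced by a random sequence; recombinant human Wnt-3a applied at 2500-5 ng/ml.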
# [2] = test system: wildtype Wnt signaling cascade; test: HEK293 TOP assay (Super TopFlash luciferase reporter, Wnt-3a stimulated); format: cell-based; details: Homo sapiens, HEK293, 16 h, HEK293 TOP reporter cells, Wnt3a at EC50, 16 hours
# Summary of the method: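 Compound series (50 μM down to 15 nM, 3.16-fold) diluted from DMSO 50-fold into CAFTY buffer, pH 7.4, 2 mM Ca^2+, 0.01% BSA, applied to Wnt-3a-stimulated HEK293 TopFlash and FOP reporter lines in parallel. Cells seeded 10000/well 24 h before; luciferase signal measured.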
pIC50 (TNKS2),pIC50 [2],Structure (SMILES),pIC50 [1]
7.19,8.09,"CCNC(=O)c1nc[nH]c1C(=O)N[C@H]1CC[C@@]2(CCCN(c3cc(C)c(F)cc3Cl)C2=O)CC1 [Example 305, N^5-[(trans)-2-(2-chloro-4-fluoro-5-methylphenyl)-1-oxo-2-azaspiro[5.5]undec-9-yl]-N^4-ethyl-1H-imidazole-4,5-dicarboxamide]",≤ 6.30
5.33,6.24,"O=C(N[C@H]1CC[C@]2(CCN(c3ccc(F)cc3Cl)C2=O)CC1)c1c[nH]c2cccnc12 [Example 332, N-[(cis)-2-(2-chloro-4-fluorophenyl)-1-oxo-2-azaspiro[4.5]dec-8-yl]-1H-pyrrolo[3,2-b]pyridine-3-carboxamide]",4.46
6.82,7.47,"CCN(c1ccccc1Cl)C(=O)[C@H]1CC[C@H](NC(=O)c2[nH]cnc2C(=O)NC)CC1 [Example 158, N^5-{trans-4-[(2-chlorophenyl)(ethyl)carbamoyl]cyclohexyl}-N^4-methyl-1H-imidazole-4,5-dicarboxamide]",≤ 4.30
6.82,7.06,"Cc1cc(C)n2nc(C)c(C(=O)N[C@H]3CC[C@@]4(CCN(c5ccc(F)cc5Cl)C4=O)CC3)c2n1 [Example 227, N-[(trans)-2-(2-chloro-4-fluorophenyl)-1-oxo-2-azaspiro[4.5]dec-8-yl]-2,5,7-trimethylpyrazolo[1,5-a]pyrimidine-3-carboxamide]",≤ 4.30
5.92,6.57,"O=C(N[C@H]1CC[C@@]2(CCN(c3ccc(F)cc3Cl)C2=O)CC1)c1cnc2ccccn12 [Example 223, N-[(trans)-2-(2-chloro-4-fluorophenyl)-1-oxo-2-azaspiro[4.5]dec-8-yl]imidazo[1,2-a]pyridine-3-carboxamide]",≤ 4.30
< 5.00,5.96,"COCc1cc(C)n2ncc(C(=O)N[C@H]3CC[C@]4(CCN(c5ccc(F)cc5Cl)C4=O)CC3)c2n1 [Example 337, N-[(cis)-2-(2-chloro-4-fluorophenyl)-1-oxo-2-azaspiro[4.5]dec-8-yl]-5-(methoxymethyl)-7-methylpyrazolo[1,5-a]pyrimidine-3-carboxamide]",≤ 4.30
8.25,9.52,"O=C(N[C@H]1CC[C@@]2(CCN(c3ccc(F)cc3Cl)C2=O)CC1)c1[nH]cnc1C(=O)N1CC(F)(F)C1 [Example 189, N-[(trans)-2-(2-chloro-4-fluorophenyl)-1-oxo-2-azaspiro[4.5]dec-8-yl]-4-[(3,3-difluoroazetidin-1-yl)carbonyl]-1H-imidazole-5-carboxamide]",5.01
< 5.00,5.00,"O=C(N[C@H]1CC[C@H](C(=O)Nc2ccc(F)cc2Cl)CC1)c1n[nH]c2ccc(F)cc12 [Example 254, N-{trans-4-[(2-chloro-4-fluorophenyl)carbamoyl]cyclohexyl}-5-fluoro-1H-indazole-3-carboxamide]",≤ 4.30
8.00,8.57,"O=C(N[C@H]1CC[C@@]2(CCCN(c3cc(F)c(F)cc3Cl)C2=O)CC1)c1cnn2cccnc12 [Example 313, N-[(trans)-2-(2-chloro-4,5-difluorophenyl)-1-oxo-2-azaspiro[5.5]undec-9-yl]pyrazolo[1,5-a]pyrimidine-3-carboxamide]",≤ 6.30
7.39,7.52,"Cc1cc(N2CCC[C@]3(CC[C@@H](NC(=O)c4[nH]cnc4C(=O)N4CC5(COC5)C4)CC3)C2=O)c(Cl)cc1F [Example 311, N-[(trans)-2-(2-chloro-4-fluoro-5-methylphenyl)-1-oxo-2-azaspiro[5.5]undec-9-yl]-4-(2-oxa-6-azaspiro[3.3]hept-6-ylcarbonyl)-1H-imidazole-5-carboxamide]",≤ 4.30
7.36,7.77,"COCCn1cc(C(=O)N[C@H]2CC[C@@]3(CCN(c4ccc(F)cc4Cl)C3=O)CC2)c2ncccc21 [Example 345, N-[(trans)-2-(2-chloro-4-fluorophenyl)-1-oxo-2-azaspiro[4.5]dec-8-yl]-1-(2-methoxyethyl)-1H-pyrrolo[3,2-b]pyridine-3-carboxamide]",5.09
6.85,7.04,"N#Cc1cc(F)cc(Cl)c1NC(=O)[C@H]1CC[C@H](NC(=O)c2cnn3cccnc23)CC1 [Example 152, N-{trans-4-[(2-chloro-6-cyano-4-fluorophenyl)carbamoyl]cyclohexyl}pyrazolo[1,5-a]pyrimidine-3-carboxamide]",≤ 4.30
6.77,6.28,"Cc1cc(NC(=O)[C@H]2CC[C@H](NC(=O)c3cnn4cccnc34)CC2)c(Cl)cn1 [Example 153, N-{trans-4-[(5-chloro-2-methylpyridin-4-yl)carbamoyl]cyclohexyl}pyrazolo[1,5-a]pyrimidine-3-carboxamide]",≤ 4.30
5.41,6.25,"O=C(N[C@H]1CC[C@@]2(CCN(c3cccs3)C2=O)CC1)c1cnn2cccnc12 [Example 361, N-[(trans)-1-oxo-2-(thiophen-2-yl)-2-azaspiro[4.5]dec-8-yl]pyrazolo[1,5-a]pyrimidine-3-carboxamide]",≤ 4.30
6.82,7.34,"Cc1cc(N2CC[C@]3(CC[C@@H](NC(=O)c4[nH]cnc4C(=O)N4CCN(C)CC4)CC3)C2=O)c(Cl)cc1F [Example 294, N-[(trans)-2-(2-chloro-4-fluoro-5-methylphenyl)-1-oxo-2-azaspiro[4.5]dec-8-yl]-4-[(4-methylpiperazin-1-yl)carbonyl]-1H-imidazole-5-carboxamide]",≤ 4.30
8.23,9.82,"O=C(N[C@H]1CC[C@@]2(CCN(c3cnccc3Cl)C2=O)CC1)c1cnn2cccnc12 [Example 246, N-[(trans)-2-(4-chloropyridin-3-yl)-1-oxo-2-azaspiro[4.5]dec-8-yl]pyrazolo[1,5-a]pyrimidine-3-carboxamide]",≤ 4.30
6.80,7.32,"Cc1cc(C2CC2)n2ncc(C(=O)N[C@H]3CC[C@H](C(=O)Nc4ccc(F)cc4Cl)CC3)c2n1 [Example 204, N-{trans-4-[(2-chloro-4-fluorophenyl)carbamoyl]cyclohexyl}-7-cyclopropyl-5-methylpyrazolo[1,5-a]pyrimidine-3-carboxamide]",≤ 4.30
6.55,7.52,"O=C(N[C@H]1CC[C@@]2(CCN(c3ccc(F)cc3Cl)C2=O)CC1)c1cnn2ccccc12 [Example 230, N-[(trans)-2-(2-chloro-4-fluorophenyl)-1-oxo-2-azaspiro[4.5]dec-8-yl]pyrazolo[1,5-a]pyridine-3-carboxamide]",≤ 6.30
< 5.00,5.72,"O=C(NC1CC1)c1nc[nH]c1C(=O)N[C@H]1CC[C@]2(CCN(c3ccc(F)cc3Cl)C2=O)CC1 [Example 338, N^5-[(cis)-2-(2-chloro-4-fluorophenyl)-1-oxo-2-azaspiro[4.5]dec-8-yl]-N^4-cyclopropyl-1H-imidazole-4,5-dicarboxamide]",4.74
8.12,8.25,"COCc1cc(C)nc2c(C(=O)N[C@H]3CC[C@@]4(CCN(c5ccc(F)cc5Cl)C4=O)CC3)cnn12 [Example 219, N-[(trans)-2-(2-chloro-4-fluorophenyl)-1-oxo-2-azaspiro[4.5]dec-8-yl]-7-(methoxymethyl)-5-methylpyrazolo[1,5-a]pyrimidine-3-carboxamide]",≤ 6.30

# Source: patent US20180148418A1, “AMIDO-SUBSTITUTED CYCLOHEXANE DERIVATIVES” (Bayer Pharma Aktiengesellschaft, priority 2015, published 2018)
